From BindingDB's records for doi:10.1016/0960-894X(96)00231-4 (1996)
pEC50, pKi: −log10 of the molar value.

Columns and labels:
[1] = Stimulation of mitogenesis in Dopamine receptor D3 transfected CHO p-5 cells
[2] = target: D(2) dopamine receptor (Rattus norvegicus) (UniProt P61169); test: Binding affinity at Dopamine D2 receptors in rat striatum by [3H]spiperone displacement.
[3] = Binding affinity at Dopamine D3 receptors in rat striatum by [3H]-spiperone displacement.

Chain of D(2) dopamine receptor (Rattus norvegicus) (P61169 whole entry, looked up): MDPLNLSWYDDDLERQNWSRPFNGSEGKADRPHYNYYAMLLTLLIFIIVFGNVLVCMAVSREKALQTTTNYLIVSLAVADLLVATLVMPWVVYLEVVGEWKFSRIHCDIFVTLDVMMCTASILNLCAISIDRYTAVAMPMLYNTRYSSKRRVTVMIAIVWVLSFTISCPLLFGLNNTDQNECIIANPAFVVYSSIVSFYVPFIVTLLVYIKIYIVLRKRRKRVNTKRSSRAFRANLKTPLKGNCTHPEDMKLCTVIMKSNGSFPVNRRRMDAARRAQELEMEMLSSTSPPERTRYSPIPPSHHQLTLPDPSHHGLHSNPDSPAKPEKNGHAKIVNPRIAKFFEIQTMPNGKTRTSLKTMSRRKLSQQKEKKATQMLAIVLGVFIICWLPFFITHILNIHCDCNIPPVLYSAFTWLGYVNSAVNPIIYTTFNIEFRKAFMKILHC

pEC50 [1] | pKi [2] | pKi [3] | SMILES
7.55 | 6.15 | – | COc1c(C(=O)NCCN2CCN(c3cccc(Cl)c3)CC2)cc(Br)c2ccccc12 [4-Bromo-1-methoxy-naphthalene-2-carboxylic acid {2-[4-(3-chloro-phenyl)-piperazin-1-yl]-ethyl}-amide]
– | 5.93 | – | COc1c(C(=O)NCCN2CCN(c3cccc(C)c3C)CC2)cc(Br)c2ccccc12 [4-Bromo-1-methoxy-naphthalene-2-carboxylic acid {2-[4-(2,3-dimethyl-phenyl)-piperazin-1-yl]-ethyl}-amide]
– | 5.60 | 7.26 | COc1c(C(=O)NCCN2CCN(c3ccccc3)CC2)cc(Cl)c2ccccc12 [4-Chloro-1-methoxy-naphthalene-2-carboxylic acid [2-(4-phenyl-piperazin-1-yl)-ethyl]-amide]
< 6.00 | 6.32 | 7.18 | COc1c(C(=O)NCCN2CCN(c3ccccc3C)CC2)cc(Br)c2ccccc12 [4-Bromo-1-methoxy-naphthalene-2-carboxylic acid [2-(4-o-tolyl-piperazin-1-yl)-ethyl]-amide]
– | 5.15 | 6.57 | COc1c(C(=O)NCCN2CCN(c3ccccc3)CC2)ccc2ccccc12 [1-Methoxy-naphthalene-2-carboxylic acid [2-(4-phenyl-piperazin-1-yl)-ethyl]-amide]
– | 5.72 | 7.62 | COc1c(C(=O)NCCN2CCN(c3ccccc3)CC2)cc(Br)c2ccccc12 [4-Bromo-1-methoxy-naphthalene-2-carboxylic acid [2-(4-phenyl-piperazin-1-yl)-ethyl]-amide]
– | < 5.00 | < 5.00 | O=C(NCCN1CCN(c2ccccc2)CC1)c1cc(Br)c2ccccc2c1O [4-Bromo-1-hydroxy-naphthalene-2-carboxylic acid [2-(4-phenyl-piperazin-1-yl)-ethyl]-amide]
– | 5.24 | 6.14 | COc1c(C(=O)NCCN2CCN(c3ccc([N+](=O)[O-])cc3)CC2)cc(Br)c2ccccc12 [4-Bromo-1-methoxy-naphthalene-2-carboxylic acid {2-[4-(4-nitro-phenyl)-piperazin-1-yl]-ethyl}-amide]
– | < 5.00 | 6.57 | CCOc1c(C(=O)NCCN2CCN(c3ccccc3)CC2)cc(Br)c2ccccc12 [4-Bromo-1-ethoxy-naphthalene-2-carboxylic acid [2-(4-phenyl-piperazin-1-yl)-ethyl]-amide]
– | 5.92 | 6.47 | COc1c(C(=O)NCCN2CCN(c3cccc(C)c3)CC2)cc(Br)c2ccccc12 [4-Bromo-1-methoxy-naphthalene-2-carboxylic acid [2-(4-m-tolyl-piperazin-1-yl)-ethyl]-amide]
– | < 5.00 | < 5.00 | O=C(NCCN1CCN(c2ccccc2)CC1)c1cc(Br)c2ccccc2c1 [4-Bromo-naphthalene-2-carboxylic acid [2-(4-phenyl-piperazin-1-yl)-ethyl]-amide]
– | – | 6.88 | COc1c(C(=O)NCCN2CCN(c3ccc(Cl)cc3)CC2)cc(Br)c2ccccc12 [4-Bromo-1-methoxy-naphthalene-2-carboxylic acid {2-[4-(4-chloro-phenyl)-piperazin-1-yl]-ethyl}-amide]
– | 6.00 | 6.59 | COc1c(C(=O)NCCN2CCN(c3ccc(C)cc3)CC2)cc(Br)c2ccccc12 [4-Bromo-1-methoxy-naphthalene-2-carboxylic acid [2-(4-p-tolyl-piperazin-1-yl)-ethyl]-amide]
– | 5.89 | 6.19 | COc1cccc(N2CCN(CCNC(=O)c3cc(Br)c4ccccc4c3OC)CC2)c1 [4-Bromo-1-methoxy-naphthalene-2-carboxylic acid {2-[4-(3-methoxy-phenyl)-piperazin-1-yl]-ethyl}-amide]
– | 5.24 | 6.14 | COc1ccc(N2CCN(CCNC(=O)c3cc(Br)c4ccccc4c3OC)CC2)cc1 [4-Bromo-1-methoxy-naphthalene-2-carboxylic acid {2-[4-(4-methoxy-phenyl)-piperazin-1-yl]-ethyl}-amide]
7.08 | 6.29 | 7.41 | COc1c(C(=O)NCCN2CCN(c3ccccc3Cl)CC2)cc(Br)c2ccccc12 [4-Bromo-1-methoxy-naphthalene-2-carboxylic acid {2-[4-(2-chloro-phenyl)-piperazin-1-yl]-ethyl}-amide]
– | 5.89 | 6.19 | COc1c(C(=O)NCCN2CCN(c3cccc([N+](=O)[O-])c3)CC2)cc(Br)c2ccccc12 [4-Bromo-1-methoxy-naphthalene-2-carboxylic acid {2-[4-(3-nitro-phenyl)-piperazin-1-yl]-ethyl}-amide]
– | 7.15 | 6.88 | COc1c(C(=O)NCCN2CCN(c3ccccc3)CC2)cc(C#N)c2ccccc12 [4-Cyano-1-methoxy-naphthalene-2-carboxylic acid [2-(4-phenyl-piperazin-1-yl)-ethyl]-amide]
– | 6.52 | 7.12 | COc1ccccc1N1CCN(CCNC(=O)c2cc(Br)c3ccccc3c2OC)CC1 [4-Bromo-1-methoxy-naphthalene-2-carboxylic acid {2-[4-(2-methoxy-phenyl)-piperazin-1-yl]-ethyl}-amide]
– | 6.82 | 7.62 | COc1c(C(=O)NCCN2CCN(c3ccccc3[N+](=O)[O-])CC2)cc(Br)c2ccccc12 [4-Bromo-1-methoxy-naphthalene-2-carboxylic acid {2-[4-(2-nitro-phenyl)-piperazin-1-yl]-ethyl}-amide]
